# Calls of active or inactive are those of the source. The calls are words filed in the database; no cut-off is given here.
# Assays:
# [1] = biological target: T1, Toll-like receptor 7 (Homo sapiens) (UniProt Q9NYK1); assay: Activation of human TLR7 expressed in HEK293 cells assessed as increase in NF-kappaB activation at 100 ug/ml by SEAP assay; format: cell-based
# T1 sequence (whole entry): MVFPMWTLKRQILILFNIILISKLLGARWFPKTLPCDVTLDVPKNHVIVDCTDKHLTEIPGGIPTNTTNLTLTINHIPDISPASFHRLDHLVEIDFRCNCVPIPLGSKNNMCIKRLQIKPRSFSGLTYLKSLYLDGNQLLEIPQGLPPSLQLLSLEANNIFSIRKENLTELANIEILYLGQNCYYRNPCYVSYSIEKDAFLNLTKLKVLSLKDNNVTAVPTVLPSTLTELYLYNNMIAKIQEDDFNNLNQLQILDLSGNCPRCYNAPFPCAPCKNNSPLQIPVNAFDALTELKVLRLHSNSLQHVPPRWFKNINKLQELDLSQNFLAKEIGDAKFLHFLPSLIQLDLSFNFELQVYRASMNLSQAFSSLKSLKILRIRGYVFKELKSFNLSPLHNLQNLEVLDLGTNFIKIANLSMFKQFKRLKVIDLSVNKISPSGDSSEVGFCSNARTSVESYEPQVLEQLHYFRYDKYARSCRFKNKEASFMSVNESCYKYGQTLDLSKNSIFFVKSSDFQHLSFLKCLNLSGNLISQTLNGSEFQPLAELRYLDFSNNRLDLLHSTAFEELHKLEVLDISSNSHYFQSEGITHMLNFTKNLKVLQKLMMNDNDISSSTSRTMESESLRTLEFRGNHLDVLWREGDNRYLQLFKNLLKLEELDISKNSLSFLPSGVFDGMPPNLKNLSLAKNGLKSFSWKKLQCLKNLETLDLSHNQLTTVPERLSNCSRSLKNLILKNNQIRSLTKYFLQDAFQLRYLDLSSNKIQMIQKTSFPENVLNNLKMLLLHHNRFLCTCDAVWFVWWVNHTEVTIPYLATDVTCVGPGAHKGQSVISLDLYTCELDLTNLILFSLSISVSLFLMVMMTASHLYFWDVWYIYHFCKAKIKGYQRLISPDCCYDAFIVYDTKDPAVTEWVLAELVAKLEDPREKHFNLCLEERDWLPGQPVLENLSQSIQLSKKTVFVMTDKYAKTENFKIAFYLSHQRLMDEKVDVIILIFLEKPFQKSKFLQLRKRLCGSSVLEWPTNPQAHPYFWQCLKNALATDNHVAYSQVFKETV
# [2] = tested on: PBMC; assay: Induction of IL1-beta secretion in human PBMC after 24 hrs by Luminex Multiplex assay; format: functional, cell-based
# [3] = tested on: PBMC; assay: Induction of IL12 secretion in human PBMC after 24 hrs by Luminex Multiplex assay; format: functional, cell-based
# [4] = biological target: T2, Toll-like receptor 8 (Homo sapiens) (UniProt Q9NR97); assay: Activation of human TLR8 expressed in HEK293 cells assessed as increase in NF-kappaB activation at 100 ug/ml by SEAP assay; format: cell-based
# T2 sequence (whole entry): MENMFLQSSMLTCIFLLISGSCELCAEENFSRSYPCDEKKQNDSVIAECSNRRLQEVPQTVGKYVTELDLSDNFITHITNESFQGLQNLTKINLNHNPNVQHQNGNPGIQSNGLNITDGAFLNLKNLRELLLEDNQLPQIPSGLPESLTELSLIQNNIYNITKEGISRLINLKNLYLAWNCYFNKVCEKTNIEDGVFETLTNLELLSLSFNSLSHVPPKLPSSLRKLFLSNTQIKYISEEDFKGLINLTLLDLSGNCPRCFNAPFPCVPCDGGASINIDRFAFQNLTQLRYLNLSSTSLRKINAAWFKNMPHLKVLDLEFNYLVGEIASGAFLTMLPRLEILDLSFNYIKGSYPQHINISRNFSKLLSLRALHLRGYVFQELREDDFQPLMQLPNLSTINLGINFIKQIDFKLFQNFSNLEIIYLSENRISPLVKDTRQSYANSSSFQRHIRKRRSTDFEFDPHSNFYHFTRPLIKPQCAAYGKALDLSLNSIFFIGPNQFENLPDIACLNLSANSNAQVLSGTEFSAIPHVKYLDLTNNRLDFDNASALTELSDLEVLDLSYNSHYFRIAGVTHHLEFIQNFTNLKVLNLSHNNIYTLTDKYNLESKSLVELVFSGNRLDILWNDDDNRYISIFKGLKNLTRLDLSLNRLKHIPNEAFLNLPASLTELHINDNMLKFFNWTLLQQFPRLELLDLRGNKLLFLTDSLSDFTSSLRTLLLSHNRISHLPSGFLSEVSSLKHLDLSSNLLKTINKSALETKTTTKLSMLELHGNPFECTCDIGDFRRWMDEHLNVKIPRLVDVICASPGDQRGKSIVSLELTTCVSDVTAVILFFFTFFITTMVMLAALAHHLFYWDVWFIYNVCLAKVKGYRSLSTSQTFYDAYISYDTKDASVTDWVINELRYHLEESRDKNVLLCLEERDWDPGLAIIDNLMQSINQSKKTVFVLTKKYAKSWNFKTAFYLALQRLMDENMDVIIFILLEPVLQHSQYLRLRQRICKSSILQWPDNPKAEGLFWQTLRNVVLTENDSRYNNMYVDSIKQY
# [5] = tested on: PBMC; assay: Induction of IFNalpha secretion in human PBMC after 24 hrs by Luminex Multiplex assay; format: functional, cell-based
# [6] = tested on: PBMC; assay: Induction of IL10 secretion in human PBMC after 24 hrs by Luminex Multiplex assay; format: functional, cell-based
# [7] = tested on: PBMC; assay: Induction of IFN-gamma secretion in human PBMC after 24 hrs by Luminex Multiplex assay; format: functional, cell-based
# [8] = tested on: PBMC; assay: Induction of IL2R secretion in human PBMC after 24 hrs by Luminex Multiplex assay; format: functional, cell-based
# [9] = Stability in 1% human serum assessed as full length product after 10 mins; format: ADME, cell-free; details: read-out: Stability
compound,measurement,setting,value
Nc1ccn([C@@H]2O[C@H](COP(O)(=S)O[C@H]3[C@@H](O)[C@H](n4ccc(=O)[nH]c4=O)O[C@@H]3COP(O)(=S)O[C@H]3[C@@H](O)[C@H](n4ccc(=O)[nH]c4=O)O[C@@H]3COP(O)(=S)O[C@H]3[C@@H](O)[C@H](n4ccc(N)nc4=O)O[C@@H]3COP(O)(=S)O[C@H]3[C@@H](O)[C@H](n4cnc5c(=O)[nH]c(N)nc54)O[C@@H]3COP(O)(=S)O[C@H]3[C@@H](O)[C@H](n4ccc(=O)[nH]c4=O)O[C@@H]3COP(O)(=S)O[C@H]3[C@@H](O)[C@H](n4ccc(N)nc4=O)O[C@@H]3COP(O)(=S)O[C@H]3[C@@H](O)[C@H](n4cnc5c(=O)[nH]c(N)nc54)O[C@@H]3COP(O)(=S)O[C@H]3[C@@H](O)[C@H](n4ccc(=O)[nH]c4=O)O[C@@H]3CO)[C@@H](OP(O)(=S)OC[C@H]3O[C@@H](n4ccc(=O)[nH]c4=O)[C@H](O)[C@@H]3OP(O)(=S)OC[C@H]3O[C@@H](n4cnc5c(=O)[nH]c(N)nc54)[C@H](O)[C@@H]3OP(O)(=S)OCC(O)COP(O)(=S)O[C@H]3[C@@H](O)[C@H](n4cnc5c(=O)[nH]c(N)nc54)O[C@@H]3COP(O)(=S)O[C@H]3[C@@H](O)[C@H](n4ccc(=O)[nH]c4=O)O[C@@H]3COP(O)(=S)O[C@H]3[C@@H](O)[C@H](n4ccc(N)nc4=O)O[C@@H]3COP(O)(=S)O[C@H]3[C@@H](O)[C@H](n4ccc(=O)[nH]c4=O)O[C@@H]3COP(O)(=S)O[C@H]3[C@@H](O)[C@H](n4ccc(=O)[nH]c4=O)O[C@@H]3COP(O)(=S)O[C@H]3[C@@H](O)[C@H](n4ccc(N)nc4=O)O[C@@H]3COP(O)(=S)O[C@H]3[C@@H](O)[C@H](n4cnc5c(=O)[nH]c(N)nc54)O[C@@H]3COP(O)(=S)O[C@H]3[C@@H](O)[C@H](n4ccc(=O)[nH]c4=O)O[C@@H]3COP(O)(=S)O[C@H]3[C@@H](O)[C@H](n4ccc(N)nc4=O)O[C@@H]3COP(O)(=S)O[C@H]3[C@@H](O)[C@H](n4cnc5c(=O)[nH]c(N)nc54)O[C@@H]3COP(O)(=S)O[C@H]3[C@@H](O)[C@H](n4ccc(=O)[nH]c4=O)O[C@@H]3CO)[C@H]2O)c(=O)n1 (some centres undefined),Activity,[1],inactive
same,Activity,[2],Dose-dependent effect
same,Activity,[3],Dose-dependent effect
same,Activity,[4],Active
same,Activity,[5],Dose-dependent effect
same,Activity,[6],Dose-dependent effect
same,Activity,[7],Dose-dependent effect
same,Activity,[8],Dose-dependent effect
same,remaining at 10 min,[9],56%

# — ChEMBL document CHEMBL1156502, “Stabilized immune modulatory RNA compounds as agonists of Toll-like receptors 7 and 8” (Proc Natl Acad Sci U S A, 2007)
